Source: patent US6897227B2, “Prodrugs of proton pump inhibitors” (Winston Pharmaceuticals, Inc., priority 2002, dated 2005)

Key:
[1] = buffer
Protocol: (§3) The stability of Compounds 1, 2, 3, 4 and 5 of the invention in aqueous solution (0.1 mg/mL) was investigated in Britton Robinson buffers of pH 3, pH 7, and pH 9, respectively. A solution of 0.1 mg/mL concentration of each compound in each buffer was prepared and the solutions were stored at 37° C. for 1 h and then the concentrations of test compounds were determined by HPLC.

[2] = tested on: histamine and carbachol-stimulated gastric acid secretion; assay: Inhibition of gastric acid secretion of the conscious male rat, oral administration; format: in vivo, rat (Sprague-Dawley); conditions: sodium salt; for inhibition in vivo at 20 µmol/kg / inhibition in vivo at 40 µmol/kg: read-out: % inhibition of gastric acid secretion between 3-5 hours after administration; for inhibition in vivo at 40 µmol/kg: 40 μmole/kg
Protocol: Male rats (the Sprague-Dawley strain) were used in this experiment. OMEPRAZOLE sodium salt or LANSOPRAZOLE sodium salt (20 mg) was suspended in 10 ml of 0.1 N NaHCO3. 40 mg of each of the sodium salts of Compound 1, Compound 2, Compound 3, Compound 4, Compound 6 Compound 9, Compound 12, mixture (1:1) of Compound 16 and 17, mixture (1:1) of Compound 18 and 19, mixture (1:1) of Compound 20 and 21, mixture (1:1) of Compound 22 and 23, Compound 27, mixture (1:1) of Compound 34 and 35, and Compound 36 were dissolved in 10 ml of 50 mM sodium phosphate buffer, pH 7.4. The doses administered to the rats were as follows (μmole per kg body weight of the rat): OMEPRAZOLE (10 μmole/kg), LANSOPRAZOLE (10 μmole/kg), Compound 120 μmole/kg, Compound 2 40 μmole/kg, Compound 320 μmole/kg, Compound 420 μmole/kg, Compound 620 μmole/kg, Compound 940 μmole/kg, Compound 1240 μmole/kg, mixture (1:1) of Compound 16 and 17 40 μmole/kg, mixture (1:1) of Compound 18 and 19 40 μmole/kg, mixture (1:1) of Compound 20 and 21 40 μmole/kg, mixture (1:1) of Compound 22 and 23 40 μmole/kg, Compound 27 40 μmole/kg, mixture (1:1) of Compound 34 and 35 40 μmole/kg, and Compound 3640 μmole/kg. These drug solutions were orally administered.
(§1) 3 hours after administration the abdomen of the rat was incised and the pylorus was ligated under light ether anethesia. Histamine (30 mg/kg) and carbachol (30 μg/kg) were subcutaneously injected for acid stimulation. Immediately the abdomen was closed. Two hours later, the esophagus was ligated and the stomach was removed. The gastric juice was collected and acid output was quantified by titration using 0.1 N NaOH solution. As a control experiment, 1 ml of 50 mM phosphate buffer (pH 7.4) solution was orally administrated without any prodrug or proton pump inhibitory drug. Acid output was quantified by same method as described above, showing maximum histamine and carbachol-stimulated gastric acid secretion. Percentage inhibition was calculated from the fractional responses elicited by the test compound and a control experiment.

[3] = Stability in plasma at 37° C. (gradient HPLC-UV), rat plasma; format: in vitro ADME
Protocol: (§2) Exemplary test compounds (prodrugs) of the invention were incubated in plasma at 37° C., and the concentration of the compounds and also of the corresponding proton pump inhibitor compounds (PPI) were determined by a gradient HPLC-UV method. Although the half-lives of test compounds in plasma varies depending on their structure, nevertheless it is apparent that in plasma the compounds of the invention are converted into the corresponding proton pump inhibitor at a rate faster than the hydrolysis rate of the compound at neutral or near neutral pH.

[4] = Solubility in phosphate buffered saline buffer of pH 7.4 at 37° C.; format: physicochemical; conditions: aqueous buffer, sodium salts, phosphate buffered saline buffer pH 7.4, read-out: Solubility at 37° C. Conc.
Protocol: The solubility of the sodium salts of certain exemplary compounds of the present invention in a phosphate buffered saline buffer of pH 7.4 (50 mM sodium phosphate, 10 mM KCl, 0.1 M NaCl) and also in a more acidic Britton Robinson buffer of pH 3 (40 mM acetic acid, 40 mM phosphoric acid, 40 mM boric acid, 36 mM NaOH, and 19.6 mg/ml KCl) was also evaluated. […] The tested compounds were much less soluble little in the Britton Robinson buffer of pH 3, but still more soluble than the prior art compounds (a) through (f). This is understandable in view of the fact that in the buffer of pH 7.4 the compounds of the invention form a sodium salt, whereas in the buffer of pH 3 the compounds are less soluble free carboxylic acids. Thus, a solution of a sodium or other pharmaceutically acceptable salt of the compounds of the invention, or stated in an other way the compounds of the invention at pH 7 or above are highly soluble and therefore suitable for administration by intravenous injection.

[5] = Stability in Britton Robinson buffers (hydrolysis of prodrug to PPI, HPLC); conditions: Britton Robinson buffer, pH 7
Protocol: as §3

[6] = Stability in plasma at 37° C. (gradient HPLC-UV), human plasma; format: in vitro ADME
Protocol: as §2

gastric acid secretion = assay: Inhibition of gastric acid secretion in rat, intravenous administration; format: in vivo
Protocol: as §1
Inhibition of gastric acid secretion after intravenous administration of compounds of the invention was also examined. Lansoprazole sodium salt (20 mg) was dissolved in 40% hydroxypropyl-beta-cyclodextrin. The compounds of the invention used in this experiment were dissolved in phosphate buffered saline solution of pH 7.4. Each compound was injected intravenously at a dose of 5 μmole/kg or 10 μmole/kg (μmole per kg body weight of rat) as indicated in Table 4 below. Between 2 to 4 hours after injection gastric juice was collected, and the percentage of inhibition was determined as described above.

[7] = Aqueous solubility (water / distilled water); format: physicochemical; conditions: free carboxylic acids
Excerpt: A further significant advantage of the proton pump inhibitor prodrugs of the present invention relative to the proton pump inhibitor prodrugs disclosed in U.S. Pat. No. 6,093,734, 6,559,167 and PCT Publication WO 00109498 and to all other prior art is their increased solubility.

## CCC(Oc1ccc(S(=O)(=O)n2c([S+]([O-])Cc3nccc(OCC(F)(F)F)c3C)nc3ccccc32)cc1)C(=O)O (centres unmarked) [Compound 4, 2-(4-{2-[3-Methyl-4-(2,2,2-trifluoro-ethoxy)-pyridin-2-ylmethanesulfinyl]-benzimidazole-1-sulfonyl}phenoxy)butric acid]
[1]
  Half-life of hydrolysis at pH 7 of the prodrug to the corresponding proton pump inhibitory drug: over 50 hours
[2]; 20 μmole/kg
  % inhibition of gastric acid secretion between 3-5 hours after administration: 60.9 ± 25.5%

## COc1ccc(S(=O)(=O)n2c([S+]([O-])Cc3nccc(OCC(F)(F)F)c3C)nc3ccccc32)cc1C(=O)[O-].[Na+] (centres unmarked) [Compound 3, 2-methoxy-5-{2-[3-methyl-4-(2,2,2-trifluoro-ethoxy)-pyridin-2-ylmethanesulfinyl]benzimidazole-1-sulfonyl}-benzoic acid sodium salt]
[3]
  half-life: 81 min
[4]
  solubility: > 50 mg/mL
[2]; 20 μmole/kg
  inhibition in vivo at 20 µmol/kg: 84.9 ± 13.6%
[5]
  half-life at 0.1 mg/mL: > 50 h
[6]
  half-life: 10 min

## Cc1c(OCC(F)(F)F)ccnc1C[S+]([O-])c1nc2ccccc2n1S(=O)(=O)c1ccc(OCC(=O)[O-])c(OCC(=O)[O-])c1.[Na+].[Na+] (centres unmarked) [Compound 12, (2-Carboxymethoxy-4-{2-[3-methyl-4-(2,2,2-trifluoro-ethoxy)-pyridin-2-ylmethanesulfinyl]-benzimidazole-1-sulfonyl}-phenoxy)-acetic acid di-sodium salt]
[3]
  half-life: 78 min
[4]
  solubility: > 50 mg/mL
Gastric acid secretion; 5 μmole/kg
  % inhibition of gastric acid secretion between 2-4 hours after i.v. administration: 89.2 ± 6.8%
Gastric acid secretion; 10 μmole/kg
  % inhibition of gastric acid secretion between 2-4 hours after i.v. administration: 92.6 ± 2.9%
[2]
  inhibition in vivo at 40 µmol/kg: 82.8 ± 9.6%
[6]
  half-life: 51 min

## Cc1c(OCC(F)(F)F)ccnc1C[S+]([O-])c1nc2ccccc2n1S(=O)(=O)c1ccc(OCC(=O)[O-])cc1.[Na+] (centres unmarked) [Compound 2, (4-{2-[3-Methyl-4-(2,2,2-trifluoro-ethoxy)-pyridin-2-ylmethanesulfinyl]-benzimidazole-1-sulfonyl}-phenoxy)acetic acid sodium salt]
[3]
  half-life: 18 min
[4]
  solubility: > 50 mg/mL
Gastric acid secretion; 5 μmole/kg
  % inhibition of gastric acid secretion between 2-4 hours after i.v. administration: 63.1 ± 31.7%
[2]
  inhibition in vivo at 40 µmol/kg: 64.2 ± 11.3%
[5]
  half-life at 0.1 mg/mL: > 50 h
[7]
  solubility: > 0.1 mg/mL

## Cc1cc(OCC(=O)[O-])cc(C)c1S(=O)(=O)n1c([S+]([O-])Cc2nccc(OCC(F)(F)F)c2C)nc2ccccc21.[Na+] (centres unmarked) [Compound 5]
[3]
  half-life: 31 min
[4]
  solubility: > 30 mg/mL
[5]
  half-life at 0.1 mg/mL: > 50 h

## COc1ccc2c(c1)nc([S+]([O-])Cc1ncc(C)c(OC)c1C)n2S(=O)(=O)c1ccc(OCC(=O)[O-])cc1.[Na+] (centres unmarked) [Compound 9, {4-[5-methoxy-2-(4-methoxy-3,5-dimethyl-pyridin-2-ylmethanesulfinyl)-benzimidazole-1-sulfonyl]-phenoxy}-acetic acid sodium salt]
[4]
  solubility: > 30 mg/mL
[2]
  inhibition in vivo at 40 µmol/kg: 74.4 ± 25.1%
[7]
  solubility: > 0.1 mg/mL

## Cc1c(OCC(F)(F)F)ccnc1C[S+]([O-])c1nc2ccccc2n1S(=O)(=O)c1cccc(C(=O)O)c1 (centres unmarked) [Compound 1, 3-{2-[3-Methyl-4-(2,2,2-trifluoro-ethoxy)-pyridin-2-ylmethanesulfinyl]-benzimidazole-1-sulfonyl}benzoic acid]
[3]
  half-life: 14 min
[4]
  solubility: > 30 mg/mL
Gastric acid secretion; 5 μmole/kg
  % inhibition of gastric acid secretion between 2-4 hours after i.v. administration: 83.7 ± 10.1%
Gastric acid secretion; 10 μmole/kg
  % inhibition of gastric acid secretion between 2-4 hours after i.v. administration: 90.6 ± 2.1%
[2]; 20 μmole/kg
  inhibition in vivo at 20 µmol/kg: 81.9 ± 7.1%
[5]
  half-life at 0.1 mg/mL: > 50 h
[6]
  half-life: 12 min
